Measurements as given in the supplement of paper PMC10307832.

Experiments:
Assay in all cases: relative viability (nuclei count vs DMSO), 5 days (fraction); higher = more cells survive
Decitabine + Foretinib = compound: Nc1ncn([C@H]2C[C@H](O)[C@@H](CO)O2)c(=O)n1 [Decitabine] + COc1cc2c(Oc3ccc(NC(=O)C4(C(=O)Nc5ccc(F)cc5)CC4)cc3F)ccnc2cc1OCCCN1CCOCC1 [Foretinib] (partner 0.25 µM)
How it was run: (§1)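 The day after seeding in 1536-well plates, lung cancer cell lines were treated by pin tool with a single drug, or with a fixed anchor-drug dose together with five library-drug doses (not always all listed) in √10 steps. After 5 days, a combined fix-and-stain solution (final 0.05% Triton X-100, 1% formaldehyde, 1 ug/ml Hoechst) was added. Nuclei counted on 4× images gave relative viability as treated counts over vehicle counts, reported as the median of duplicate plates.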

Decitabine + Navitoclax = compound: Nc1ncn([C@H]2C[C@H](O)[C@@H](CO)O2)c(=O)n1 [Decitabine] + CC1(C)CCC(c2ccc(Cl)cc2)=C(CN2CCN(c3ccc(C(=O)NS(=O)(=O)c4ccc(N[C@H](CCN5CCOCC5)CSc5ccccc5)c(S(=O)(=O)C(F)(F)F)c4)cc3)CC2)C1 [Navitoclax] (partner 0.5 µM)
How it was run: as §1

Cediranib + Decitabine = compound: COc1cc2c(Oc3ccc4[nH]c(C)cc4c3F)ncnc2cc1OCCCN1CCCC1 [Cediranib] + Nc1ncn([C@H]2C[C@H](O)[C@@H](CO)O2)c(=O)n1 [Decitabine] (partner 2 µM)
How it was run: as §1

Halofuginone + OSI-027 = compound: O=C(C[C@H]1NCCC[C@@H]1O)Cn1cnc2cc(Br)c(Cl)cc2c1=O (racemic) [Halofuginone] + COc1cccc2cc(-c3nc([C@H]4CC[C@H](C(=O)O)CC4)n4ncnc(N)c34)[nH]c12 [OSI-027] (partner 0.5 µM)
How it was run: as §1

Row | Cell Line | relative viability (Decitabine + Foretinib; first compound 0.04 µM) | relative viability (Decitabine + Foretinib; first compound 0.1265 µM) | relative viability (Decitabine + Foretinib; first compound 0.4 µM) | relative viability (Decitabine + Foretinib; first compound 1.265 µM) | relative viability (Decitabine + Foretinib; first compound 4 µM) | relative viability (Decitabine + Navitoclax; first compound 0.04 µM) | relative viability (Decitabine + Navitoclax; first compound 0.1265 µM) | relative viability (Decitabine + Navitoclax; first compound 0.4 µM) | relative viability (Decitabine + Navitoclax; first compound 1.265 µM) | relative viability (Decitabine + Navitoclax; first compound 4 µM) | relative viability (Cediranib + Decitabine; first compound 0.04 µM) | relative viability (Cediranib + Decitabine; first compound 0.1265 µM) | relative viability (Cediranib + Decitabine; first compound 0.4 µM) | relative viability (Cediranib + Decitabine; first compound 1.265 µM) | relative viability (Cediranib + Decitabine; first compound 4 µM) | relative viability (Halofuginone + OSI-027; first compound 0.001 µM) | relative viability (Halofuginone + OSI-027; first compound 0.003162 µM) | relative viability (Halofuginone + OSI-027; first compound 0.01 µM) | relative viability (Halofuginone + OSI-027; first compound 0.03162 µM) | relative viability (Halofuginone + OSI-027; first compound 0.1 µM)
1 | NCI-H2023 | 0.649 | 0.617 | 0.369 | 0.265 | 0.189 | 0.609 | 0.517 | 0.379 | 0.259 | 0.198 | 0.212 | 0.229 | 0.229 | 0.234 | 0.266 | 0.488 | 0.421 | 0.36 | 0.3 | 0.0722
2 | EBC-1 | 0.0865 | 0.0957 | 0.106 | 0.0836 | 0.0866 | 0.21 | 0.257 | 0.2 | 0.178 | 0.15 |  |  |  |  |  |  |  |  |  | 
3 | NCI-H1666 | 0.91 | 0.86 | 0.776 | 0.662 | 0.68 | 0.85 | 0.776 | 0.687 | 0.465 | 0.487 | 0.738 | 0.624 | 0.728 | 0.87 | 0.727 | 1.01 | 0.869 | 0.766 | 0.955 | 0.852
4 | NCI-H1975 | 0.63 | 0.546 | 0.265 | 0.317 | 0.31 | 0.431 | 0.317 | 0.291 | 0.256 | 0.256 | 0.638 | 0.432 | 0.403 | 0.351 | 0.42 | 0.751 | 0.744 | 0.67 | 0.473 | 0.348
5 | NCI-H2170 | 0.87 | 0.85 | 0.767 | 0.437 | 0.393 | 0.402 | 0.338 | 0.382 | 0.238 | 0.204 | 0.522 |  | 0.473 | 0.481 | 0.515 | 0.699 | 0.714 | 0.738 | 0.651 | 0.659
6 | NCI-H1355 | 0.568 | 0.596 | 0.436 | 0.374 | 0.305 | 0.695 | 0.583 | 0.471 | 0.248 | 0.913 | 0.331 | 0.359 | 0.353 | 0.367 | 0.429 | 0.41 | 0.423 | 0.393 | 0.463 | 0.303
7 | NCI-H1648 |  |  |  |  |  |  |  |  |  |  | 0.44 | 0.501 | 0.448 | 0.48 | 0.481 | 0.247 | 0.217 | 0.242 | 0.275 | 0.262
8 | A549 | 0.719 | 0.634 | 0.448 | 0.143 | 0.0978 | 0.929 | 0.875 | 0.331 | 0.117 | 0.077 | 0.449 | 0.115 | 0.272 | 0.258 | 0.319 |  |  |  |  | 
9 | SK-MES-1 | 0.688 | 0.758 | 0.697 | 0.407 | 0.309 | 0.976 | 0.84 | 0.501 | 0.33 | 0.303 | 0.427 | 0.394 | 0.436 | 0.384 | 0.387 | 0.679 | 0.666 | 0.557 | 0.498 | 0.152
10 | EKVX | 0.65 | 0.995 | 0.605 | 0.353 | 0.365 | 0.75 | 0.809 | 0.561 | 0.365 | 0.347 | 0.332 | 0.342 | 0.341 |  | 0.392 | 0.656 | 0.789 | 0.773 | 0.499 | 0.539
11 | RERF-LC-KJ | 0.877 | 0.84 | 0.741 | 0.689 | 0.635 | 0.779 | 0.844 | 0.279 | 0.597 | 0.618 | 0.657 | 0.629 | 0.715 | 0.666 | 0.684 | 0.618 | 0.609 | 0.537 | 0.565 | 0.488
12 | NCI-H1755 | 0.889 | 0.886 | 0.804 | 0.565 | 0.447 | 0.912 | 0.887 | 0.696 | 0.521 | 0.302 | 0.71 | 0.66 | 0.753 | 0.707 | 0.724 | 0.76 | 0.788 | 0.677 | 0.753 | 0.627
13 | NCI-H661 | 1.02 | 0.966 | 0.777 | 0.6 | 0.554 |  |  |  |  |  | 0.663 | 0.598 | 0.529 | 0.531 | 0.588 | 0.776 | 0.685 | 0.679 | 0.611 | 0.499
14 | LOU-NH91 | 0.56 | 0.913 | 0.726 | 0.739 | 0.756 | 0.372 | 0.645 | 0.503 | 0.458 | 0.525 | 0.787 | 0.831 | 0.81 | 0.792 | 0.8 | 0.733 | 0.732 | 0.748 | 0.741 | 0.692
15 | LXF-289 | 0.713 | 0.541 | 0.399 | 0.289 | 0.269 | 0.65 | 0.53 | 0.44 | 0.308 | 0.29 | 0.397 |  | 0.371 | 0.385 | 0.411 | 0.762 | 0.885 | 0.819 | 0.785 | 0.542
